Laboratory results taken from patent US20220096516A1, “OLIGONUCLEOTIDE MOLECULE AND APPLICATION THEREOF IN TUMOR THERAPY” (Ractigen Therapeutics, priority 2019, published 2022).
d = 2'-deoxy (DNA); r = 2'-OH (RNA)

Legend:
HepG2 transplanted tumor = HepG2 transplanted tumor growth in nude mice; parameters: species or system BALB/c nude mice; settings: HepG2 xenograft, day 13; saRNA (in vivo-jetPEI) 1 mg/kg intratumor days 1, 4, 7, 10; regorafenib 3 mg/kg intragastric daily day 1-12; vehicle 118%
Experimental: To prepare the saRNA formulation, the in vivo-jetPEI (201-10G, Polyplus-transfection, France) was adopted as an saRNA delivery system. The preparation process is briefly described as follows. An saRNA was first diluted in 10% glucose solution to obtain a solution A. According to the instructions of the manufacturer, a required amount of in vivo-jetPEI was diluted in 10% glucose solution to obtain a solution B. Equal volumes of the solution A and the solution B were mixed (nitrogen-to-phosphorus ratio: 8; final concentration of glucose: 5%). After mixing, the mixture was let to stand at room temperature for 15 minutes for later use.
HepG2 cells in the logarithmic growth phase were obtained and counted, and then the cell suspension was regulated to 5×10^7 cells/mL and subcutaneously inoculated into the right armpit of BALB/c nude mice at a volume of 0.1 mL per mouse. […] Starting from the initial administration, the long diameter and the short diameter of each tumor were measured with a vernier caliper every two days. The tumor volume was calculated according to the formula V=(l×w^2)/2, wherein 1 represents the longest diameter of the tumor and w represents the diameter parallel to the surface of the tumor and perpendicular to the long diameter. A tumor growth curve and size and morphology of the tumor after anatomy were recorded during the administration.

U87MG transplanted tumor = U87MG transplanted tumor growth in nude mice; parameters: species or system BALB/c nude mice; settings: U87MG xenograft, day 13; saRNA (in vivo-jetPEI) 1 mg/kg intratumor days 1, 4, 7, 10; regorafenib 3 mg/kg intragastric daily day 1-12; control 406%
Experimental: To prepare the saRNA formulation, in vivo-jetPEI (201-10G, Polyplus-transfection, France) was adopted as an saRNA delivery system. The preparation process is briefly described as follows: an saRNA was first diluted in a 10% glucose solution to give a solution A; a required amount of in vivo-jetPEI was diluted in 10% glucose solution to give a solution B; then, equal volumes of the solution A and the solution B were mixed (nitrogen-to-phosphorus ratio: 8; final concentration of glucose: 5%). After mixing the mixture was let to stand under room temperature for 15 minutes for later use.
The glioma cell line U87MG were grown to the logarithmic phase, counted, then subcutaneously inoculated at a concentration of 9×10^7 cells/mL into the right armpit of BALB/c nude mice at 0.1 mL per mouse. […] After the initial administration, the long diameter and short diameter of each tumor were measured with a vernier caliper every two days. The tumor volume was calculated according to the formula V=(l×w^2)/2, wherein 1 represents the longest diameter of the tumor and w represents the diameter parallel to the surface of the tumor and perpendicular to the long diameter. A tumor growth curve and size and morphology of the tumor anatomy were recorded during the administration.

[1] = tested on: bladder cancer cell line T24; test: Cell viability by CCK-8 method, T24; assay type: cell-based, human; settings: T24, 10 nM, 72 h, FIG. 7B
Experimental: (§1) 8 LHPP promoter-targeting saRNAs were individually transfected into cancer cells at 10 nM for 72 h. In FIG. 7A, the expression level of LHPP mRNA was analyzed by RT-qPCR. In FIG. 7B, cell viability in the saRNA treatment group was evaluated by the CCK-8 method and recorded as a percentage relative to the viability of cells in a control (Mock) treatment group.
(§2) The cell viability was detected by the following CCK-8 method: the cCells were plated into a 96-well plate at 3-5×10^3 cells/well, cultured overnight, and transfected with the oligonucleotide duplexes. After 72 hour of transfection, 10 uL of CCK-8 solution (Dojindo Molecular Technologies) was added into each well. After 1 hour of incubation at 37° C., a microplate reader was used to measure absorbances at 450 nm.
(§3) In order to further evaluate the effect of LHPP saRNAs in inducing the mRNA expression of the LHPP gene and inhibiting the proliferation of cancer cells, eight screened saRNAs (RAG7-132, RAG7-133, RAG7-139, RAG7-177, RAG7-178, RAG7-694, RAG7-707 and RAG7-892) each were transfected into the liver cancer cell lines Huh7 (Medical Cell Resource Center, Tohoku University, Japan), HepG2 (ATCC), Hep3B (ATCC), Li-7 (Medical Cell Resource Center, Tohoku University, Japan) and SK-HEP-1 (ATCC), a lung cancer cell line A549 (ATCC), a bladder cancer cell line T24 (ATCC), a prostatic cancer cell line PC3 (ATCC), and a glioma cell line U87MG (ATCC). The mRNA expression and cell viability of the transfected cells were measured.

LHPP gene [2] = test: High-throughput screening of saRNAs targeting LHPP promoter: LHPP mRNA by one-step RT-qPCR in Huh7 cells; assay type: cell-based, human; settings: 10 nM saRNA, 72 hours, relative to control (Mock)
Procedure, shortened: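 Huh7 cells were transfected with 10 nM saRNA using RNAiMax and lysed 72 h later. LHPP mRNA was quantified by one-step RT-qPCR in triplicate wells. Expression was normalised to HPRT1 and TBP and given as fold change versus mock-transfected cells.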

glioma cell line U87MG = test: Cell viability by CCK-8 method, U87MG; assay type: cell-based, human; settings: 10 nM, 72 h, FIG. 7B
Experimental: as §1, §2, §3

LHPP gene [3] = test: LHPP mRNA expression by RT-qPCR in cancer cell lines; assay type: cell-based, human; settings: 72 h
Experimental: as §1, with “into liver” for “into”, “6A,” for “7A,”, “6B,” for “7B,”
as §1, §3

[4] = tested on: lung cancer cell line A549; test: Cell viability by CCK-8 method, A549; assay type: cell-based, human; settings: A549, 10 nM, 72 h, FIG. 7B
Experimental: as §1, §2, §3

[5] = tested on: prostatic cancer cell line PC3; test: Cell viability by CCK-8 method, PC3; assay type: cell-based, human; settings: PC3, 10 nM, 72 h, FIG. 7B
Experimental: as §1, §2, §3

Hep3B cells = test: Cell viability by CCK-8 method, Hep3B; assay type: cell-based, human; settings: 10 nM, 72 h, FIG. 6B
Experimental: as §1, with “into liver” for “into”, “6A,” for “7A,”, “6B,” for “7B,”
as §2, with “nm. […]” for “nm.”

SK-HEP-1 cells = test: Cell viability by CCK-8 method, SK-HEP-1; assay type: cell-based, human; settings: SK-HEP-1, 10 nM, 72 h, FIG. 6B
Experimental: as §1, with “into liver” for “into”, “6A,” for “7A,”, “6B,” for “7B,”
as §2, with “nm. […]” for “nm.”

HepG2 cells = test: Cell viability by CCK-8 method, HepG2; assay type: cell-based, human; settings: HepG2, 10 nM, 72 h, FIG. 6B
Experimental: as §1, with “into liver” for “into”, “6A,” for “7A,”, “6B,” for “7B,”
as §2, with “nm. […]” for “nm.”

Huh7 cells = test: Cell viability by CCK-8 method, Huh7; assay type: cell-based, human; settings: Huh7, 10 nM, 72 h, FIG. 6B
Experimental: The 290 saRNAs targeting the LHPP promoter were individually transfected into Huh7 cells, and 72 hour later, one-step RT-qPCR was employed to analyze the expression levels of LHPP mRNA and cell viability was detected by the CCK-8 method.
as §2, §3

Row | Compound | cell proliferation (cell viability, CCK-8) [1] | Fold of changes in relative LHPP mRNA expression level (LHPP gene [2]) | Fold of changes in relative LHPP mRNA expression level (log2) (LHPP gene [2]) | cell proliferation (cell viability, CCK-8) (glioma cell line U87MG) | expression of LHPP gene (mRNA) (LHPP gene [3]; A549, 10 nM, FIG. 7A) | expression of LHPP gene (mRNA) (LHPP gene [3]; T24, 10 nM, FIG. 7A) | expression of LHPP gene (mRNA) (LHPP gene [3]; U87MG, 10 nM, FIG. 7A) | cell proliferation (cell viability, CCK-8) [4] | expression of LHPP gene (mRNA) (LHPP gene [3]; PC3, 10 nM, FIG. 7A) | cell proliferation (cell viability, CCK-8) [5] | further results
1 | CNC(=O)c1cc(Oc2ccc(NC(=O)Nc3ccc(Cl)c(C(F)(F)F)c3)c(F)c2)ccn1 [regorafenib, Regorafenib, reference compound] |  |  |  |  |  |  |  |  |  |  | tumor volume increase compared with that at the beginning of treatment (HepG2 transplanted tumor): 70%; tumor volume increase compared with that at the beginning of treatment (U87MG transplanted tumor): 251%
2 | RAG7-177: saRNA duplex; sense AUUUGCCUUUGACCUUUCUTT (SEQ ID NO: 6), antisense AGAAAGGUCAAAGGCAAAUTT (SEQ ID NO: 170) (sugars from the 5' end r19 d2, backbone not given here) | inhibited cell proliferation | 1.74 fold | 0.80 log2 | inhibited cell proliferation | induced the expression of LHPP gene to different degrees | induced the expression of LHPP gene to different degrees | induced the expression of LHPP gene to different degrees | inhibited cell proliferation |  |  | 
3 | RAG7-178: saRNA duplex; sense AAUUUGCCUUUGACCUUUCTT (SEQ ID NO: 5), antisense GAAAGGUCAAAGGCAAAUUTT (SEQ ID NO: 169) (sugars from the 5' end r19 d2, backbone not given here) |  | 1.76 fold | 0.82 log2 | inhibited cell proliferation | induced the expression of LHPP gene to different degrees |  | induced the expression of LHPP gene to different degrees | inhibited cell proliferation | induced the expression of LHPP gene to different degrees | inhibited cell proliferation | 
4 | RAG7-694: saRNA duplex; sense AGGUCCUAUGCAUCCUCAUTT (SEQ ID NO: 3), antisense AUGAGGAUGCAUAGGACCUTT (SEQ ID NO: 167) (sugars from the 5' end r19 d2, backbone not given here) | inhibited cell proliferation | 1.88 fold | 0.91 log2 |  | induced the expression of LHPP gene to different degrees | induced the expression of LHPP gene to different degrees |  | inhibited cell proliferation | induced the expression of LHPP gene to different degrees | inhibited cell proliferation | cell proliferation (cell viability, CCK-8) (Hep3B cells): inhibited cell proliferation; cell proliferation (cell viability, CCK-8) (SK-HEP-1 cells): inhibited cell proliferation; cell proliferation (cell viability, CCK-8) (HepG2 cells): inhibited cell proliferation; expression of LHPP gene (mRNA) (LHPP gene [3]; Hep3B, 10 nM, FIG. 6A): induced the expression of LHPP gene to different degrees; expression of LHPP gene (mRNA) (LHPP gene [3]; HepG2, 10 nM, FIG. 6A): induced the expression of LHPP gene to different degrees; expression of LHPP gene (mRNA) (LHPP gene [3]; Huh7, 10 nM, FIG. 6A): induced the expression of LHPP gene to different degrees; expression of LHPP gene (mRNA) (LHPP gene [3]; SK-HEP-1, 10 nM, FIG. 6A): induced the expression of LHPP gene to different degrees; cell proliferation (cell viability, CCK-8) (Huh7 cells): inhibited cell proliferation
5 | RAG7-916: saRNA duplex; sense CUCUUCUUUGAAAGCUCAATT (SEQ ID NO: 33), antisense UUGAGCUUUCAAAGAAGAGTT (SEQ ID NO: 197) (sugars from the 5' end r19 d2, backbone not given here) |  | 1.48 fold | 0.56 log2 |  |  |  |  |  |  |  | 
6 | RAG7-917: saRNA duplex; sense UCUCUUCUUUGAAAGCUCATT (SEQ ID NO: 64), antisense UGAGCUUUCAAAGAAGAGATT (SEQ ID NO: 228) (sugars from the 5' end r19 d2, backbone not given here) |  | 1.32 fold | 0.40 log2 |  |  |  |  |  |  |  | 
